PubChem BioAssay (NCI)
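Results reflect a 48-hour exposure of cells in 96-well plates to compound at five concentrations. GI50 is the concentration that inhibits growth by half. TGI is the concentration that stops growth completely.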

How the values were obtained:
Assay in all cases: DTP human tumour cell line panel, 48 h
[1] = tested on: MALME-3M melanoma
[2] = tested on: HOP-92 NSCLC
[3] = tested on: HS 578T breast
[4] = tested on: UACC-62 melanoma
[5] = tested on: PC-3 prostate
[6] = tested on: EKVX NSCLC
[7] = tested on: SNB-19 CNS
[8] = tested on: SF-295 CNS
[9] = tested on: A549 NSCLC
[10] = tested on: HCT-15 colon
[11] = tested on: NCI-H460 lung
[12] = tested on: UACC-257 melanoma
[13] = tested on: SK-MEL-2 melanoma
[14] = tested on: NCI-H226 lung
[15] = tested on: HOP-62 NSCLC
[16] = tested on: CCRF-CEM leukemia
[17] = tested on: SF-539 CNS
[18] = tested on: TK-10 renal
[19] = tested on: SW-620 colon
[20] = tested on: SF-268 CNS
[21] = tested on: RPMI-8226 leukemia
[22] = tested on: NCI/ADR-RES ovarian
[23] = tested on: OVCAR-3 ovarian
[24] = tested on: ACHN renal
[25] = tested on: OVCAR-4 ovarian
[26] = tested on: CAKI-1 renal
[27] = tested on: M14 melanoma
[28] = tested on: COLO 205 colon
[29] = tested on: 786-0 renal
[30] = tested on: MCF7 breast
[31] = tested on: UO-31 renal
[32] = tested on: SNB-75 CNS
[33] = tested on: HCC-2998 colon
[34] = tested on: KM12 colon
[35] = tested on: BT-549 breast
[36] = tested on: HCT-116 colon
[37] = tested on: K-562 leukemia
[38] = tested on: SK-OV-3 ovarian
[39] = tested on: SN12C renal
[40] = tested on: SK-MEL-5 melanoma
[41] = tested on: HT29 colon
[42] = tested on: LOX IMVI melanoma
[43] = tested on: IGROV1 ovarian
[44] = tested on: A498 renal
[45] = tested on: T-47D breast
[46] = tested on: U251 CNS
[47] = tested on: SR leukemia
[48] = tested on: DU-145 prostate
[49] = tested on: MOLT-4 leukemia
[50] = tested on: OVCAR-8 ovarian
[51] = tested on: MDA-MB-231 breast
[52] = tested on: RXF 393 renal
[53] = tested on: OVCAR-5 ovarian
[54] = tested on: HL-60(TB) leukemia
[55] = tested on: NCI-H23 lung
[56] = tested on: NCI-H522 lung
[57] = tested on: MDA-MB-435

For COc1cccc(/C=C/C(=O)c2cc3c(N)c(C(=O)Nc4ccccc4C)sc3nc2C)c1, the GI50 [1] was 2290 nM, the TGI [1] was 12600 nM and the GI50 [2] was 823 nM. The TGI [2] was 2720 nM, the GI50 [3] was 1630 nM and the TGI [3] was > 50000 nM. For the same molecule, the GI50 [4] was 905 nM, the TGI [4] was 2000 nM and the GI50 [5] was 1690 nM. It also gave a TGI [5] of 8300 nM, a GI50 [6] of 1840 nM and a TGI [6] of 10800 nM. It also gave a GI50 [7] of 1070 nM, a TGI [7] of 2680 nM and a GI50 [8] of 2260 nM. It also gave a TGI [8] of 15900 nM, a GI50 [9] of 1530 nM and a TGI [9] of 6290 nM. For the same molecule, the GI50 [10] was 854 nM, the TGI [10] was 1870 nM and the GI50 [11] was 1100 nM. The TGI [11] was 2530 nM, the GI50 [12] was 1210 nM and the TGI [12] was 3750 nM. It also gave a GI50 [13] of 1700 nM, a TGI [13] of 8180 nM and a GI50 [14] of 1070 nM. For the same molecule, the TGI [14] was 2920 nM, the GI50 [15] was 1120 nM and the TGI [15] was 2570 nM. The GI50 [16] was 1330 nM, the TGI [16] was > 50000 nM and the GI50 [17] was 1130 nM. The TGI [17] was 2910 nM, the GI50 [18] was 1550 nM and the TGI [18] was 6210 nM. For the same molecule, the GI50 [19] was 1010 nM, the TGI [19] was 2320 nM and the GI50 [20] was 1780 nM. For the same molecule, the TGI [20] was 7660 nM, the GI50 [21] was 1090 nM and the TGI [21] was 2920 nM. For the same molecule, the GI50 [22] was 1510 nM, the TGI [22] was > 50000 nM and the GI50 [23] was 1130 nM. For the same molecule, the TGI [23] was 2440 nM, the GI50 [24] was 894 nM and the TGI [24] was 1860 nM. It also gave a GI50 [25] of 2380 nM, a TGI [25] of 11200 nM and a GI50 [26] of 1660 nM. For the same molecule, the TGI [26] was 5750 nM, the GI50 [27] was 1590 nM and the TGI [27] was 6420 nM. The GI50 [28] was 2020 nM, the TGI [28] was 7610 nM and the GI50 [29] was 912 nM. The TGI [29] was 1930 nM, the GI50 [30] was 1290 nM and the TGI [30] was 6100 nM. The GI50 [31] was 863 nM, the TGI [31] was 1720 nM and the GI50 [32] was 1050 nM. It also gave a TGI [32] of 3150 nM, a GI50 [33] of 955 nM and a TGI [33] of 1870 nM. The GI50 [34] was 1270 nM, the TGI [34] was 3620 nM and the GI50 [35] was 1500 nM. It also gave a TGI [35] of 5830 nM, a GI50 [36] of 822 nM and a TGI [36] of 1500 nM. For the same molecule, the GI50 [37] was 1420 nM, the TGI [37] was > 50000 nM and the GI50 [38] was 5030 nM. For the same molecule, the TGI [38] was 38800 nM, the GI50 [39] was 953 nM and the TGI [39] was 2130 nM. It also gave a GI50 [40] of 1440 nM, a TGI [40] of 4560 nM and a GI50 [41] of 1110 nM. The TGI [41] was 2580 nM, the GI50 [42] was 875 nM and the TGI [42] was 1590 nM. For the same molecule, the GI50 [43] was 1030 nM, the TGI [43] was 2440 nM and the GI50 [44] was 989 nM. For the same molecule, the TGI [44] was 4400 nM, the GI50 [45] was 1150 nM and the TGI [45] was 3630 nM. It also gave a GI50 [46] of 892 nM, a TGI [46] of 1810 nM and a GI50 [47] of 1090 nM. For the same molecule, the TGI [47] was 4200 nM, the GI50 [48] was 1320 nM and the TGI [48] was 4080 nM. The GI50 [49] was 1490 nM, the TGI [49] was 27800 nM and the GI50 [50] was 1260 nM. The TGI [50] was > 50000 nM, the GI50 [51] was 1460 nM and the TGI [51] was 4080 nM. For the same molecule, the GI50 [52] was 768 nM, the TGI [52] was 1530 nM and the GI50 [53] was 1210 nM. The TGI [53] was 3760 nM, the GI50 [54] was 1100 nM and the TGI [54] was 2630 nM. The GI50 [55] was 1760 nM, the TGI [55] was 8930 nM and the GI50 [56] was 1070 nM. It also gave a TGI [56] of 3380 nM, a GI50 [57] of 1070 nM and a TGI [57] of 2770 nM.
